What is called DC50 is the midpoint of the concentration-degradation curve. The term IC50 denotes the point on the concentration scale where inhibition reaches its midpoint.

In data set [1] the test system is K562 cell transplantation tumor. Nature of the data set: BCR-ABL+ K562 cell transplanted tumor model in mice. The data set is classed as in vivo. From the text:
(1) Establishment of K562 Luc cells: the target fragment of luciferase was cloned into lentivirus vector Plenti-IRES-ZSGREEN, and a K562-Luc cell line stably expressing luciferase was established on K562 cells by using lentivirus infection system.
(§1) (2) BCR-ABL+K562 cell transplanted mouse model: 5*106 k562 Luc cells were inoculated into the subcutaneous of immunodeficient NOD-SCID mice. After 2 weeks, the tumor volume of mice was nearly 200 mm^3. The mice were randomly divided into 5 groups. […] At the same time, the mice were imaged in vivo to observe the tumor-bearing condition. Then stop the administration and observe the recurrence of the tumor.

Data set [2] has as its target T1, BCR-ABL protein (Homo sapiens, UniProt P00519). The experiment in a line: Western blot degradation of BCR-ABL in K562 cells. The data set is classed as cell-based. Particulars: 16 hours, 1 nM-10 μM. The arrangement: Western blot was used to detect the expression of BCR-ABL and c-ABL protein in K562 cells; BCR (fusion partner, P11274); endogenous in cells; host or cells: K562; the other entry of the earlier key: BCR (P11274, Breakpoint cluster region protein). The essentials: (§2)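 Lysates were normalized by Bradford and run on SDS-PAGE with nitrocellulose transfer. DC50 was derived from band intensities by non-linear regression.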
On the technique in general: In western blotting, separated proteins are transferred to a membrane and probed.

Data set [3] has as its system Src protein kinase, kit, PDGFR. Nature of the data set: Degradation of other tyrosine kinase receptors.
In the next data set the test system is K562 (BCR-ABL+) cells. The experiment in a line: CCK-8 proliferation inhibition, K562 cells.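 Note: Ten-point threefold dilution series starting at 10 µM, absorbance at 450 nm after 2 h with CCK-8, DMSO as negative control.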 In kind it is cell-based, human. Particulars: Homo sapiens, K562, 48 h, CCK-8, 48 hours of drug treatment; read-out: Proliferative inhibitory activity (IC50, nM) K562 (BCR-ABL+).
Data set [4] has as its target T1, BCR-ABL protein. The experiment in a line: Degradation of BCR-ABL protein in vivo. The arrangement: BCR (fusion partner, P11274); from tissue; host or cells: in vivo; the other entry of the earlier key: BCR (P11274, Breakpoint cluster region protein). An excerpt: (§3) We further study whether PROTAD compound of the disclosure can induce BCR-ABL protein degradation in vivo. We still took the compound SIAIS151178 of Dasa-Lin-VHL system as the representative one.

Another data set relates to HEK293 (BCR-ABL-) cells. The experiment in a line: CCK-8 proliferation inhibition, HEK293 cells.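 Note: Ten-point threefold dilution series starting at 10 µM, CCK-8 absorbance at 450 nm read after 2 h reagent incubation, DMSO-treated cells as negative control.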 As to conditions: Homo sapiens, HEK293, 48 h, read-out: Proliferative inhibitory activity (IC50, nM) HEK293 (BCR-ABL-).
The test system of a further data set is BCR-ABL signal pathway. Nature of the data set: BCR-ABL signal pathway activity in vivo.
Description: as §3

In data set [5] the test system is BCR-ABL-G250E/V299L/F317L/F317V. Nature of the data set: Western blot degradation of BCR-ABL drug resistance mutants in U937 cells. The data set is classed as cell-based, human. Particulars: U937 cells stably expressing mutants, 24 hours, 10 nM-10 μM. How it is done:
(1) Establishment of stable BCR-ABL mutant: the target fragment of BCR-ABL was cloned into retroviral vector pmigrl, and then PMIGR1-BCR-ABL-G250E/E255K/V299L/F317L/F317V/T315I/T315A and other mutant forms were obtained by using Stratagene-QuikChange® Site-Directed Mutagenesis Kit. Finally, the cell lines stably expressing BCR-ABL wild type and mutant were established on U937 cells by retrovirus infection system.
(1) Cell seed: Established cells are added to the 24 well plates, with a cell density of 3×10^5/ml and a total volume of 1.5 ml; Four concentration gradients, 10 nm, 100 nm, 1 μM, and 10 μM, are respectively set for PROTAD series compounds. […] After 24 hours of drug treatment, the cells were collected in 1.5 ml ep tube, centrifuged at 3000 rpm for 3 minutes, and then added 30 μL PBS and 30 μL 2×SDS to cell precipitated, lysate Heat at 100° C. for 5 minutes, then placed on ice for 5 minutes, centrifuged at 10000 rpm for 5 minutes, and take the supernatant as the total protein extracted. The effect of SIAS151178 on the mutational BCR-ABL protein was detected by Western blotting.

For data set [6], the target named is T2, c-ABL protein (Homo sapiens, UniProt P00519). The experiment in a line: Degradation of c-ABL protein in vivo. Also noted: from tissue; host or cells: in vivo.
T2 sequence (P00519 whole entry): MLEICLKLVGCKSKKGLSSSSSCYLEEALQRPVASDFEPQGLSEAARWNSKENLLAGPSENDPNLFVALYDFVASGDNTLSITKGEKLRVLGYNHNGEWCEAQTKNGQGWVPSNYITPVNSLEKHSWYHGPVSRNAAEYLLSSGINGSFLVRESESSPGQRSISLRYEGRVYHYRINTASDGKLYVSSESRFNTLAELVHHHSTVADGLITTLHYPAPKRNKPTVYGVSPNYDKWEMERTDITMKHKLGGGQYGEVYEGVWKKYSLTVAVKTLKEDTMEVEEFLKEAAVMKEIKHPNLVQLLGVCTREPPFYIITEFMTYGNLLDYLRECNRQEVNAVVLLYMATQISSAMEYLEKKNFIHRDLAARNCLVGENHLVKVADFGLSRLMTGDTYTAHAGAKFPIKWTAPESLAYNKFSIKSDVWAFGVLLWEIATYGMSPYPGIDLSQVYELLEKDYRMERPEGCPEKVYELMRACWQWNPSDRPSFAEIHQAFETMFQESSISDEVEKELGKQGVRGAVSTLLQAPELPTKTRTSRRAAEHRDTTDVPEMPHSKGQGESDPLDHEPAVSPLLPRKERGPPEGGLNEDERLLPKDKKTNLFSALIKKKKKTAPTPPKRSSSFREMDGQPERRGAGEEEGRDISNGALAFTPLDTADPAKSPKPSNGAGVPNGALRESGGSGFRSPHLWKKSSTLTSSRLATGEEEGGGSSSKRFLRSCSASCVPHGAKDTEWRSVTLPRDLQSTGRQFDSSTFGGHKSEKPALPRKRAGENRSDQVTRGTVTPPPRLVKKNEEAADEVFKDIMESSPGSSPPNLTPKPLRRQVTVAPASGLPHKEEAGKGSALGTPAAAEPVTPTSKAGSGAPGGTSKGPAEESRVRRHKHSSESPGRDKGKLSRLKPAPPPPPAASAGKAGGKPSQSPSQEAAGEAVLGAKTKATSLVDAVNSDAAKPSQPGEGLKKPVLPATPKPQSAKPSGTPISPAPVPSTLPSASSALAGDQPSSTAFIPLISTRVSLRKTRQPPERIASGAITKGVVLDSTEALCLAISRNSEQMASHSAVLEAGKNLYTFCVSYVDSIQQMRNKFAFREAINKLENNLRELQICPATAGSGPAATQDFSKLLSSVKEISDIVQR
Description: as §3

The nature of data set [7]: Body weight and toxicity in the K562 transplanted mouse model. In kind it is in vivo. Particulars: NOD-SCID mice, during the experiment period.
Description: as §1

Another data set relates to U937 (BCR-ABL-) cells. The experiment in a line: CCK-8 proliferation inhibition, U937 cells.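 Note: Ten-point threefold dilution series, absorbance at 450 nm after 2 h with CCK-8 reagent, DMSO as negative control.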 As to conditions: Homo sapiens, U-937; CCK-8, 48 hours of drug treatment, highest concentration 10 μM; read-out: Proliferative inhibitory activity (IC50, nM) U937 (BCR-ABL-). The data set is classed as cell-based, human.
The target in data set [8] is T2, c-ABL protein. The experiment in a line: Western blot degradation of c-ABL in K562 cells. In kind it is cell-based. The arrangement: Western blot was used to detect the expression of BCR-ABL and c-ABL protein in K562 cells; endogenous in cells; host or cells: K562. As to conditions: 16 hours, 1 nM-10 μM. The procedure, abridged: as §2

T1 sequence (P00519 with tags, fused parts or gaps): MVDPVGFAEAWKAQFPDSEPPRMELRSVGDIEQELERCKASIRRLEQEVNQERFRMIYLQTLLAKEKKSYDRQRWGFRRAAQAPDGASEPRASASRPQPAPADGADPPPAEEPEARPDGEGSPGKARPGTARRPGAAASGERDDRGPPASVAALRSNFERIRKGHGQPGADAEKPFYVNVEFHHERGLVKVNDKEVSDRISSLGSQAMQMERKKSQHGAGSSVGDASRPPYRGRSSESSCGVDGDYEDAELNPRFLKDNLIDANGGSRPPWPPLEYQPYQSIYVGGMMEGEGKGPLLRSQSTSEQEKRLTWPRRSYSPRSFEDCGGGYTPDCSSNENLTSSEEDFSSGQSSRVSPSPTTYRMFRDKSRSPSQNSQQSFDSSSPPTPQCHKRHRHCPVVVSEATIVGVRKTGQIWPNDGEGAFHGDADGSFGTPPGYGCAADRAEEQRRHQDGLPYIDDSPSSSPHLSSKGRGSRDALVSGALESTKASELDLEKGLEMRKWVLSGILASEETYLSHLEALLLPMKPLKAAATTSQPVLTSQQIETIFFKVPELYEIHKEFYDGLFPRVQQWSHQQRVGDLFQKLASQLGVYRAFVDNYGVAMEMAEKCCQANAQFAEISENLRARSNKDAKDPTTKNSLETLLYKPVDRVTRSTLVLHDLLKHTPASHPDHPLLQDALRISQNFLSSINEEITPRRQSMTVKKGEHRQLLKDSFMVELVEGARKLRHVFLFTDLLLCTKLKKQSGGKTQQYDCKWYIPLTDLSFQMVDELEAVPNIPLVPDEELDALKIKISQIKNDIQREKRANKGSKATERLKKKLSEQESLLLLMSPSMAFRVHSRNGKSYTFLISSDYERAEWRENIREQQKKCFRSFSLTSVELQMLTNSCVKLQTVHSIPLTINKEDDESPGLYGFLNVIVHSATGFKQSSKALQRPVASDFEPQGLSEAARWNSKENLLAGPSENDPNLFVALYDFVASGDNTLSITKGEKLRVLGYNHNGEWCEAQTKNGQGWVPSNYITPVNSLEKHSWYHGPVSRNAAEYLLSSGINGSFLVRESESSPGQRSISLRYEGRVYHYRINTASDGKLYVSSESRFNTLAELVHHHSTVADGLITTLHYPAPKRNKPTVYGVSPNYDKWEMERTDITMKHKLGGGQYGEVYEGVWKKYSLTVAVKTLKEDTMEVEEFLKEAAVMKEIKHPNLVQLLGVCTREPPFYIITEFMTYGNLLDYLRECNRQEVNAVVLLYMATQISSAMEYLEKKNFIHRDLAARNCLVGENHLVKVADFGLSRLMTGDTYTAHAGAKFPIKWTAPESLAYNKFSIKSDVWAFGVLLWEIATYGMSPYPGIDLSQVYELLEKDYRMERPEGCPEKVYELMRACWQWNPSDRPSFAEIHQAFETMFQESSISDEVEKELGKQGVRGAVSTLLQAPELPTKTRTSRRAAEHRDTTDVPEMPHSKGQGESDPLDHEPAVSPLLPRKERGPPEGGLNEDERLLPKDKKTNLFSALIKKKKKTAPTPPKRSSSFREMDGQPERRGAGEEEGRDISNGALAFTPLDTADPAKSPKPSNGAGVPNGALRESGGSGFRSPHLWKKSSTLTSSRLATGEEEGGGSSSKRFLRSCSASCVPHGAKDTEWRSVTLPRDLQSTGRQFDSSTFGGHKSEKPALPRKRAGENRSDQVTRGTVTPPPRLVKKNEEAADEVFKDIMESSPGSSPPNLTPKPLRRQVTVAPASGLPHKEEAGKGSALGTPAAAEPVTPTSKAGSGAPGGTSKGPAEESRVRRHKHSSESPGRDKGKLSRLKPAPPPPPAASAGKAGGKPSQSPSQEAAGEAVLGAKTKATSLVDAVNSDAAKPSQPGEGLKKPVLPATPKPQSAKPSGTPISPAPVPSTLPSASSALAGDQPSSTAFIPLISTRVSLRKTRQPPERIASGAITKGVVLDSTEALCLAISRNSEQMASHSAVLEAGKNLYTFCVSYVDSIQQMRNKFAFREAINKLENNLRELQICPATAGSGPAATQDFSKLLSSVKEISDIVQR

Take `Cc1nc(Nc2ncc(C(=O)Nc3c(C)cccc3Cl)s2)cc(N2CCN(C(=O)CCCCCCC(=O)N[C@H](C(=O)N3C[C@H](O)C[C@H]3C(=O)NCc3ccc(-c4scnc4C)cc3)C(C)(C)C)CC2)n1` [SIAIS151178, N-(2-chloro-6-methylphenyl)-2-((6-(4-(8-(((S)-1-((2S,4R)-4-hydroxy-2-((4-(4-methylthiazol-5-yl)benzyl)carbamoyl)pyrrolidin-1-yl)-3,3-dimethyl-1-oxobutan-2-yl)amino)-8-oxooctanoyl)piperazin-1-yl)-2-methylpyrimidin-4-yl)amino)thiazole-5-carboxamide]: in [1] (NOD-SCID mice, 15 mg/kg), the tumor decrease entry is listed as “can cause tumor decrease”. For the same compound, the “growth of K562 cell transplantation tumor” value in [1] (NOD-SCID mice, 5, 15, 45 mg/kg, 2 weeks) is “can inhibit the growth of K562 cell transplantation tumor in a dose-dependent manner”. Further, the DC50 fell in the range of 1 to 10 nM on BCR-ABL protein [2] and 10 to 100 nM at c-ABL protein [8]. Besides, the “degradation of other tyrosine kinase receptors” value in [3] is listed as “can also degrade other tyrosine kinase receptors, such as Src protein kinase, kit, PDGFR”. Further, the results for the IC50 in the data set on K562 (BCR-ABL+) cells, with HEK293 (BCR-ABL-) cells and with U937 (BCR-ABL-) cells were 41.3 nM, over 10000 nM and over 10000 nM, respectively. For the same compound, at BCR-ABL protein [4], the “degradation of BCR-ABL protein in vivo” value was “can also degrade BCR-ABL and c-ABL protein in a dose-dependent manner in vivo”. For the same compound, the “BCR-ABL signal pathway activity in vivo” value in the data set with BCR-ABL signal pathway was “significantly inhibit the BCR-ABL signal pathway activity”. The “degradation of BCR-ABL mutants related to clinical drug resistance” value in data set [5] is on record as “can significantly degrade the mutant forms of BCR-ABL-G250E/V299L/F317L/F317V in a dose-dependent manner”. Also, the “degradation of c-ABL protein in vivo” value on c-ABL protein [6] was “can also degrade BCR-ABL and c-ABL protein in a dose-dependent manner in vivo”. Besides, in [7], the bodyweight of mice entry was “no significant effect on the bodyweight of mice”. The “toxic and side effects” value in [7] was “no obvious toxic and side effects were found”.

Values taken from patent publication US11639343B2, “Compounds targeting and degrading BCR-ABL protein and its antitumor application” (ShanghaiTech University, priority 2019, dated 2023).
